Test results published in US20130053365A1, “DIHYDROPYRIDOPHTHALAZINONE INHIBITORS OF POLY(ADP-RIBOSE)POLYMERASE (PARP)” (BioMarin Pharmaceutical, Inc., priority 2011, published 2013).
Several values for one entry are separate records, joined by “and”; a condition that tells them apart may be missing. Identical values can stand only once.

Key:
[1] = tested on: BRCA2-deficient cell line V-C8; conditions: BRCA2-deficient V-C8 compared with BRCA2 wild type control; cited from earlier work
[2] = molecular target: T1, PARP-1 (Homo sapiens, UniProt P09874); conditions: literature value, Farmer et al., Nature 2005; read-out: Ki (PARP-1 inhibitor); cited from earlier work
Target sequence in this assay (P09874 whole entry, species assumed): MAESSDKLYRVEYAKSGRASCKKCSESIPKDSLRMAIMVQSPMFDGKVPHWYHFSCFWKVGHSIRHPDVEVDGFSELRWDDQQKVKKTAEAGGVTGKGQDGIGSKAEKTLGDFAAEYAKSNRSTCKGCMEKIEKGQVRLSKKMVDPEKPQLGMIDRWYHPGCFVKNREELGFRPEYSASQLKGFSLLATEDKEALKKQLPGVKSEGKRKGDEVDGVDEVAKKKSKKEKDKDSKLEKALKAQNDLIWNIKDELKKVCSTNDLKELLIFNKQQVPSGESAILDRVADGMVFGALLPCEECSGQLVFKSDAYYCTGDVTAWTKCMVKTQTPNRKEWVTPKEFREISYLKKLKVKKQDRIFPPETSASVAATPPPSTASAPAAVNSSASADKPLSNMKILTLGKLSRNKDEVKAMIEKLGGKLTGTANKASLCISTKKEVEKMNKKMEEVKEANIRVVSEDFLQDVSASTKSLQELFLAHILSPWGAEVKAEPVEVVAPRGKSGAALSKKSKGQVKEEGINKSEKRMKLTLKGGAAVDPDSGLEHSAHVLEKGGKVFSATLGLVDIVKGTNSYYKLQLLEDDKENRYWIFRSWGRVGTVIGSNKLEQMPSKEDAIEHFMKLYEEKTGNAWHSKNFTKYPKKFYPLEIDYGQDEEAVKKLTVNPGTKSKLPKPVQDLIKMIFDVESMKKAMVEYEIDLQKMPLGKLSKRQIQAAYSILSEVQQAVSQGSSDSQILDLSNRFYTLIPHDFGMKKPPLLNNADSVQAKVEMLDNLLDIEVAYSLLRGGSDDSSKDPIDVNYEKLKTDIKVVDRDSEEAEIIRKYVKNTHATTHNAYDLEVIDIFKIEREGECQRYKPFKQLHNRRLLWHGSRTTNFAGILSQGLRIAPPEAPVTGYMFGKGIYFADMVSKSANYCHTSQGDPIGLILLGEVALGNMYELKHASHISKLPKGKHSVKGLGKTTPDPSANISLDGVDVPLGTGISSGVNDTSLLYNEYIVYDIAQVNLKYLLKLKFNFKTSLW

[3] = tested on: CAPAN-1 cells; conditions: CAPAN-1 cells in DMEM with FCS (20% v/v), glutamine and antibiotics; cited from earlier work
[4] = molecular target: T1, PARP-1; test: Universal Chemiluminescent PARP Assay (Trevigen kit), inhibition of human PARP 1 enzyme; format: biochemical; parameters: purchased Trevigen 4676-096-K; conditions: recombinant human PARP 1 enzyme, read-out: PARP-inhibitory activity
Experimental: Inhibitory effects of test compounds against human PARP 1 enzyme are assessed using Trevigen's Universal Chemiluminescent PARP Assay Kit (Trevigen CAT #4676-096-K) following the manufacturer's recommended protocol.
Immediately prior to performing the assay, the following reagents are prepared: A) 20× PARP Assay Buffer is diluted to 1× with dH2O; B) 10× PARP Cocktail, which contains a mixture of NAD and biotinylated NAD, is diluted by the addition of 10× Activated DNA and 1× PARP Assay Buffer. Both the PARP Cocktail and Activated DNA are 1× after the dilution; C) all test compounds are initially dissolved in DMSO, and subsequently serial diluted with 1× PARP Assay Buffer; D) recombinant human PARP 1 enzyme is diluted with 1× PARP Assay Buffer to generate 0.5 unit/15 μL; E) 10× Strep-Diluent is diluted to 1× with 1× PBS/0.1% Triton X-100; F) Just before use, Strep-HRP is diluted 500-fold with 1× Strep-Diluent.
The chemiluminescent assays for PARP activity is performed in white 96-well plates that are pre-coated with histones. […]
The reactions are allowed to proceed for 1 hour at room temperature. […] The light output is immediately determined in a plate reader (EnVision, by Perkin Elmer) set up for measuring chemiluminescence.
The % enzyme activity for each compound is then calculated using the following equation: […]
Target sequence in this assay (P09874 whole entry): as the sequence (P09874 whole entry, species assumed) above

Cc1nc2c(O)cccc2c(=O)[nH]1 [NU1025]
sensitivity in clonogenic survival assay [1]: exhibited sensitivity | Ki [2]: 50 nM

CN(C)Cc1ccc(-c2nc3cccc4c3n2CCNC4=O)cc1 [AG14361]
sensitivity in clonogenic survival assay [1]: exhibited sensitivity | Ki [2]: 5 nM

O=C(c1cc(Cc2n[nH]c(=O)c3ccccc23)ccc1F)N1CCN(C(=O)C2CC2)CC1 [AZD2281]
sensitivity to PARP inhibition in clonogenic survival assay [3]: showing sensitivity to PARP inhibition

Cn1ncnc1C1c2n[nH]c(=O)c3cc(F)cc(c23)NCC1c1ccc(F)cc1 (stereo not drawn) [Compound 40, 5-fluoro-9-(4-fluorophenyl)-10-(1-methyl-1H-1,2,4-triazol-5-yl)-7,8,9,10-tetrahydroazepino[4,3,2-de]phthalazin-3(2H)-one]
IC50 [4]: < 800 nM and 250 to 300 nM
